Experimental data: article PMC8297771 (PLoS Pathogens, 2021)

How the values were obtained:
MT4 cells = assay: Tissue culture cytotoxicity measurement in MT4 cells; assay type: cell-based
Excerpt: Fig 1 ALLINI structures and STP0404 activities. […] Pyridine-based KF116, D. Pyrrolopyridine-based STP0404. The conserved chemical moiety containing tert-butoxy and carboxylic acid groups are marked by “]”.

human PBMCs = assay: Tissue culture cytotoxicity measurement in human PBMCs; assay type: cell-based
Excerpt: Multiple chemical scaffolds such as quinoline (BI224436, Fig 1A), benzothiazole (GS-9822, Fig 1B) and pyridine (KF116, Fig 1C) were previously explored for the discovery of ALLINIs. Here, we employed the pyrrolopyridine-based scaffold to synthesize an ALLINI candidate compound, STP0404 (Fig 1D). STP0404 harbors the tert-butoxy moiety that is common to other ALLINIs (Fig 1). First, we measured its in vitro anti-HIV-1 efficacy and cytotoxicity using various HIV-1 strains in multiple cell types, with cytotoxicity initially tested up to 10 μM (Table 1). […] The calculated in vitro minimum therapeutic index (TI) of STP0404 under these conditions was accordingly >25,000. For comparison, we employed two FDA-approved HIV-1 inhibitors, AZT (RT inhibitor) and Raltegravir (Ral, INSTI), alongside 5 different Ral-resistant clinical isolates (Table 1).

[1] = tested on: HIV-1_89.6 passage 14 viral population (Y99H and A128T); assay: Susceptibility of STP0404-selected viral population, passage 14, in CEMx174 cells; assay type: cell-based; conditions: passage 14 viral population (Y99H and A128T) vs wild type HIV-1_89.6
Method: CEM x174 cells infected with HIV primary isolate 89.6 were cultured in the presence of STP0404 at the concentration of IC90 determined earlier. At each passage, cells from original culture in the presence of inhibitor (0.75x10^6 cells) were mixed with equal amount of no-drug control cells to propagate, and viral replication was monitored by the production of p24 antigen in the supernatant. […] The population of drug-induced mutations at each passage mentioned above was determined by sequencing of at least 10 resulting transformants.
CEM x174 cells were infected with cell-free viral supernatant collected during virus resistance assays above. […] The viral stocks were normalized by the amount of p24 capsid antigen, determined to infect CEMx174 cells at approximately 10% of populations (10,000 pg / 10^6 cells). […] Cell-free supernatants were measured for p24 antigen production 5 days post-infection. p89.6 plasmid was applied for Quickchange kit (Invitrogen) to create Y99H single, A128T single, Y99H/A128T double mutants as well as two natural variants (A124N and T125A), and these 89.6 variant viruses were generated by transfecting 293T cells and culturing the produced viruses in CEMx174 cells. The IC50 of STP0404 against respective viruses were analyzed using GraphPad Prism (Version 9) and presented as means ± S.D. of triplicates. […]

CEMx174 cells = assay: Tissue culture cytotoxicity measurement in CEMx174 cells; assay type: cell-based
Method: Fig 1 ALLINI structures and STP0404 activities. A. Quinoline-based BI224436, B. Benzothiazole-based GS-9822, C. Pyridine-based KF116, D. Pyrrolopyridine-based STP0404. The conserved chemical moiety containing tert-butoxy and carboxylic acid groups are marked by “]”. E. In vitro anti-HIV-1 efficacy of STP0404 against HIV-1NL4-3 and 89.6 strains in indicated cell lines. TI: Minimal therapeutic index values were calculated with 50% in vitro inhibitory concentration values (IC50) and 10 μM where no sign of cytotoxicity was observed during tissue culture cytotoxicity measurements (TC50) of all tested compounds in both MT4 and CEMx174 cell lines.

[2] = Plasma protein binding (equilibrium dialysis); assay type: in vitro ADME; conditions: Sprague-Dawley (rat), beagle (dog), cynomolgus monkey, pH 7.4, monkey and human plasma, read-out: In vitro protein binding
Method: The current study utilized the 96-well equilibrium dialysis device purchased from HTDialysis to dialyze the test compound and the control compound at 2 μM in plasma at 37±1°C for 4 hrs. Plasma prepared from Sprague-Dawley rats, beagle dog, cynomolgus monkey and humans were previously frozen at below -60°C. The dialysis membrane strips were soaked in ultra-pure water at room temperature for approximately 1 hr. After that, each membrane strip that contains 2 membranes was separated and soaked in ethanol:water (20,80 v,v) for approximately 20 mins, after which it was ready for use or was stored in the solution at 2–8°C for up to a month. Prior to the experiment, the membrane was rinsed and soaked for 20 mins in ultra-pure water. On the day of experiment, the plasma from Sprague-Dawley rats, beagle dogs, cynomolgus monkey and humans was thawed under running cold tap water and centrifuged at 3220×g for 5 mins to remove any clots and the pH value of the resulting plasma will be checked. if required, adjusted to 7.4 ± 0.1. All samples were further processed by protein precipitation for LC/MS/MS analysis (Wuxi AppTec, China).

[3] = Four-week oral dose toxicology study in dogs (GLP); assay type: in vivo, beagle dogs; conditions: for NOAEL at 4 weeks: both sexes, beagle
Method: STP0404 was administered orally to 10 or 15 SD rats/sex/group at dose levels of 100, 300 and 600 mg/kg/day for 4 weeks to evaluate its potential toxicity. The reversibility of any effects was also assessed following a 2-week untreated recovery period. Control animals (15 animals/sex) received the vehicle, 0.5 w/v% methylcellulose solution, in a similar manner for comparison. In addition, plasma STP0404 concentrations were determined using TK satellite animals (3 animals/sex/group) to evaluate systemic exposure of the animals to the test article. (Study no. YL18402). STP0404 was administered orally as a capsule to 4 or 6 dogs/sex/group at dose levels of 30, 60 and 90 mg/kg/day for 4 weeks to evaluate its potential toxicity. Control animals (6 animals/sex) received empty gelatin capsules in a similar manner for comparison. The reversibility of any effects was also assessed following a 2-week untreated recovery period (2 animals/sex/group for the control and 90 mg/kg/day groups). In addition, plasma STP0404 concentrations were determined using all tested animals (including control group) to evaluate systemic exposure of the animals to the test article (Study no. YL18403). The test was performed according to the Standard Operating Procedures (SOP) the Good Laboratory Practice (GLP) system of the INA Research.

## Cc1nc2c(c(C)c(C)n2Cc2cnn(C)c2)c(-c2ccc(Cl)cc2)c1[C@H](OC(C)(C)C)C(=O)O [STP0404]
MT4 cells
  TC50: > 10,000 nM
Human PBMCs; human
  TC50: >10,000 nM
Human PBMCs; human PBMCs, NL4-3, tested up to 10 μM
  TC50: >10,000 nM
Human PBMCs; human PBMCs, no observable cytotoxicity at 10 μM
  TC50: > 10 µM
[1]
  IC50 fold increase: 61.4 fold
CEMx174 cells
  TC50: > 10,000 nM
[2]
  fraction unbound at 4 h, 2 μM: 0.003 to 0.061
[3]; beagle dogs, oral
  single dose well tolerated up to: up to 500 mg/kg
[3]; dog, in vivo, dogs, 4-week once daily oral dose
  NOAEL at 4 weeks: 90 mg/kg
[3]; dog, in vivo, male and female dogs, four-week oral
  NOAEL at 4 weeks: 90 mg/kg/day
[3]; dog, in vivo
  histopathology lesions (in words): lesions were not observed in any organ
[3]; dogs, 30 mg/kg, 60 mg/kg and 90 mg/kg, four-week oral
  abnormal changes (in words): no abnormal changes were noted at any dose level
[3]; four-week dog toxicology study, ICH guidance S9
  highest non-severely toxic dose (HNSTD): 90 mg/kg/day
